{"source": "patent US20260262643A1", "about": "“HERBICIDAL BENZOXAZINES” (FMC CORPORATION, priority 2022, published 2026)", "key": {"ryegrass, Italian [1]": {"system": "ryegrass, Italian", "assay": "Test C preemergence", "type": "in vivo, Lolium multiflorum", "settings": "preemergence, 0 to 100 scale (0 no effect, 100 complete control)", "procedure,_shortened": "(§1)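 Greenhouse herbicide screen, 10-day duration. Test chemicals in solvent/surfactant blend were sprayed onto soil at sowing (pre) or onto 2–10 cm seedlings at one to two leaves (post); injury scored visually against controls, 0 no effect to 100 complete control.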"}, "ryegrass, Italian [2]": {"system": "ryegrass, Italian", "assay": "Test C postemergence", "type": "in vivo, Lolium multiflorum", "settings": "10 days, 0 to 100 scale (0 no effect, 100 complete control)", "procedure,_shortened": "as §1"}, "corn [3]": {"system": "corn", "assay": "Test C postemergence", "type": "in vivo, Zea mays", "settings": "10 days, 0 to 100 scale (0 no effect, 100 complete control)", "procedure,_shortened": "as §1"}, "rice": {"system": "rice", "assay": "Test D flooded paddy test", "type": "in vivo, Oryza sativa", "settings": "250 g ai/ha, applied to paddy water, visual rating after 13 to 14 days, scale 0 to 100 (0 no effect, 100 complete control)", "procedure,_shortened": "(§2)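 Visual ratings from 0, meaning no effect, to 100, meaning complete control, were assigned against untreated controls 13 to 14 days after compounds were added to the floodwater of pots kept 3 cm deep, with plants at the 2-leaf stage.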"}, "ragweed [4]": {"system": "ragweed", "assay": "Test C preemergence", "type": "in vivo, Ambrosia artemisiifolia", "settings": "preemergence, 0 to 100 scale (0 no effect, 100 complete control)", "procedure,_shortened": "as §1"}, "horseweed": {"system": "horseweed", "assay": "Test C postemergence", "type": "in vivo, Erigeron canadensis", "settings": "10 days, 0 to 100 scale (0 no effect, 100 complete control)", "procedure,_shortened": "as §1"}, "oat, wild [5]": {"system": "oat, wild", "assay": "Test C preemergence", "type": "in vivo, Avena fatua", "settings": "preemergence, 0 to 100 scale (0 no effect, 100 complete control)", "procedure,_shortened": "as §1"}, "barnyardgrass [6]": {"system": "barnyardgrass", "assay": "Test C postemergence", "type": "in vivo, Echinochloa crusgalli", "settings": "10 days, 0 to 100 scale (0 no effect, 100 complete control)", "procedure,_shortened": "as §1"}, "pigweed, palmer [7]": {"system": "pigweed, palmer", "assay": "Test C postemergence", "type": "in vivo, Amaranthus palmeri", "settings": "10 days, 0 to 100 scale (0 no effect, 100 complete control)", "procedure,_shortened": "as §1"}, "sedge, umbrella": {"system": "sedge, umbrella", "assay": "Test D flooded paddy test", "type": "in vivo, Cyperus difformis", "settings": "250 g ai/ha, applied to paddy water, visual rating after 13 to 14 days, scale 0 to 100 (0 no effect, 100 complete control)", "procedure,_shortened": "as §2"}, "oat, wild [8]": {"system": "oat, wild", "assay": "Test C postemergence", "type": "in vivo, Avena fatua", "settings": "10 days, 0 to 100 scale (0 no effect, 100 complete control)", "procedure,_shortened": "as §1"}, "ducksalad": {"system": "ducksalad", "assay": "Test D flooded paddy test", "type": "in vivo, Heteranthera limosa", "settings": "250 g ai/ha, applied to paddy water, visual rating after 13 to 14 days, scale 0 to 100 (0 no effect, 100 complete control)", "procedure,_shortened": "as §2"}, "soybean [9]": {"system": "soybean", "assay": "Test C postemergence", "type": "in vivo, Glycine max", "settings": "10 days, 0 to 100 scale (0 no effect, 100 complete control)", "procedure,_shortened": "as §1"}, "blackgrass [10]": {"system": "blackgrass", "assay": "Test C preemergence", "type": "in vivo, Alopecurus myosuroides", "settings": "preemergence, 0 to 100 scale (0 no effect, 100 complete control)", "procedure,_shortened": "as §1"}, "barnyardgrass [11]": {"system": "barnyardgrass", "assay": "Test C preemergence", "type": "in vivo, Echinochloa crusgalli", "settings": "preemergence, 0 to 100 scale (0 no effect, 100 complete control)", "procedure,_shortened": "as §1"}, "wheat [12]": {"system": "wheat", "assay": "Test C preemergence", "type": "in vivo, Triticum aestivum", "settings": "preemergence, 0 to 100 scale (0 no effect, 100 complete control)", "procedure,_shortened": "as §1"}, "galium": {"system": "galium", "assay": "Test C postemergence", "type": "in vivo, Galium aparine", "settings": "10 days, 0 to 100 scale (0 no effect, 100 complete control)", "procedure,_shortened": "as §1"}, "corn [13]": {"system": "corn", "assay": "Test C preemergence", "type": "in vivo, Zea mays", "settings": "preemergence, 0 to 100 scale (0 no effect, 100 complete control)", "procedure,_shortened": "as §1"}, "ragweed [14]": {"system": "ragweed", "assay": "Test C postemergence", "type": "in vivo, Ambrosia artemisiifolia", "settings": "10 days, 0 to 100 scale (0 no effect, 100 complete control)", "procedure,_shortened": "as §1"}, "foxtail, giant [15]": {"system": "foxtail, giant", "assay": "Test C postemergence", "type": "in vivo, Setaria faberi", "settings": "10 days, 0 to 100 scale (0 no effect, 100 complete control)", "procedure,_shortened": "as §1"}, "pigweed, palmer [16]": {"system": "pigweed, palmer", "assay": "Test C preemergence", "type": "in vivo, Amaranthus palmeri", "settings": "preemergence, 0 to 100 scale (0 no effect, 100 complete control)", "procedure,_shortened": "as §1"}, "foxtail, giant [17]": {"system": "foxtail, giant", "assay": "Test C preemergence", "type": "in vivo, Setaria faberi", "settings": "preemergence, 0 to 100 scale (0 no effect, 100 complete control)", "procedure,_shortened": "as §1"}, "soybean [18]": {"system": "soybean", "assay": "Test C preemergence", "type": "in vivo, Glycine max", "settings": "preemergence, 0 to 100 scale (0 no effect, 100 complete control)", "procedure,_shortened": "as §1"}, "blackgrass [19]": {"system": "blackgrass", "assay": "Test C postemergence", "type": "in vivo, Alopecurus myosuroides", "settings": "10 days, 0 to 100 scale (0 no effect, 100 complete control)", "procedure,_shortened": "as §1"}, "kochia [20]": {"system": "kochia", "assay": "Test C preemergence", "type": "in vivo, Bassia scoparia", "settings": "preemergence, 0 to 100 scale (0 no effect, 100 complete control)", "procedure,_shortened": "as §1"}, "kochia [21]": {"system": "kochia", "assay": "Test C postemergence", "type": "in vivo, Bassia scoparia", "settings": "10 days, 0 to 100 scale (0 no effect, 100 complete control)", "procedure,_shortened": "as §1"}, "wheat [22]": {"system": "wheat", "assay": "Test C postemergence", "type": "in vivo, Triticum aestivum", "settings": "10 days, 0 to 100 scale (0 no effect, 100 complete control)", "procedure,_shortened": "as §1"}, "barnyardgrass [23]": {"system": "barnyardgrass", "assay": "Test D flooded paddy test", "type": "in vivo, Echinochloa crus-galli", "settings": "250 g ai/ha, applied to paddy water, visual rating after 13 to 14 days, scale 0 to 100 (0 no effect, 100 complete control)", "procedure,_shortened": "as §2"}}, "data": [{"smiles": "CC(C)c1cc(C(=O)N2C[C@H](C)Oc3c(Cl)cccc32)cc(-n2cncn2)c1", "note": "[Compound 316]", "values": [{"measurement": "Ryegrass, Italian plant response rating", "setting": "ryegrass, Italian [1]; 500 g ai/ha", "result": 90}, {"measurement": "Ryegrass, Italian plant response rating", "setting": "ryegrass, Italian [1]; Test C, 125 g ai/ha", "result": 70}, {"measurement": "Plant response rating, Ryegrass, Italian", "setting": "ryegrass, Italian [2]; 500 g ai/ha, postemergence", "result": 80}, {"measurement": "Plant response rating, Ryegrass, Italian", "setting": "ryegrass, Italian [2]; Postemergence, 125 g ai/ha", "result": 30}, {"measurement": "Plant response rating, Corn", "setting": "corn [3]; 500 g ai/ha, postemergence", "result": 70}, {"measurement": "Plant response rating, Corn", "setting": "corn [3]; Postemergence, 125 g ai/ha", "result": 20}, {"measurement": "Plant response rating, Rice (Flood)", "setting": "rice", "result": 0}, {"measurement": "Ragweed plant response rating", "setting": "ragweed [4]; 500 g ai/ha", "result": 0}, {"measurement": "Ragweed plant response rating", "setting": "ragweed [4]; Test C, 125 g ai/ha", "result": 0}, {"measurement": "Plant response rating, Horseweed", "setting": "horseweed; 500 g ai/ha, postemergence", "result": 0}, {"measurement": "Plant response rating, Horseweed", "setting": "horseweed; Postemergence, 125 g ai/ha", "result": 0}, {"measurement": "Oat, Wild plant response rating", "setting": "oat, wild [5]; 500 g ai/ha", "result": 40}, {"measurement": "Oat, Wild plant response rating", "setting": "oat, wild [5]; Test C, 125 g ai/ha", "result": 20}, {"measurement": "Plant response rating, Barnyardgrass", "setting": "barnyardgrass [6]; 500 g ai/ha, postemergence", "result": 50}, {"measurement": "Plant response rating, Barnyardgrass", "setting": "barnyardgrass [6]; Postemergence, 125 g ai/ha", "result": 10}, {"measurement": "Plant response rating, Pigweed, Palmer", "setting": "pigweed, palmer [7]; 500 g ai/ha, postemergence", "result": 60}, {"measurement": "Plant response rating, Pigweed, Palmer", "setting": "pigweed, palmer [7]; Postemergence, 125 g ai/ha", "result": 30}, {"measurement": "Plant response rating, Sedge, Umbrella (Flood)", "setting": "sedge, umbrella", "result": 0}, {"measurement": "Plant response rating, Oat, Wild", "setting": "oat, wild [8]; 500 g ai/ha, postemergence", "result": 20}, {"measurement": "Plant response rating, Oat, Wild", "setting": "oat, wild [8]; Postemergence, 125 g ai/ha", "result": 0}, {"measurement": "Plant response rating, Ducksalad (Flood)", "setting": "ducksalad", "result": 0}, {"measurement": "Plant response rating, Soybean", "setting": "soybean [9]; 500 g ai/ha, postemergence", "result": 100}, {"measurement": "Plant response rating, Soybean", "setting": "soybean [9]; Postemergence, 125 g ai/ha", "result": 100}, {"measurement": "Blackgrass plant response rating", "setting": "blackgrass [10]; 500 g ai/ha", "result": 90}, {"measurement": "Blackgrass plant response rating", "setting": "blackgrass [10]; Test C, 125 g ai/ha", "result": 50}, {"measurement": "Barnyardgrass plant response rating", "setting": "barnyardgrass [11]; 500 g ai/ha", "result": 90}, {"measurement": "Barnyardgrass plant response rating", "setting": "barnyardgrass [11]; Test C, 125 g ai/ha", "result": 30}, {"measurement": "Wheat plant response rating", "setting": "wheat [12]; 500 g ai/ha", "result": 20}, {"measurement": "Wheat plant response rating", "setting": "wheat [12]; Test C, 125 g ai/ha", "result": 0}, {"measurement": "Plant response rating, Galium", "setting": "galium; 500 g ai/ha, postemergence", "result": 90}, {"measurement": "Plant response rating, Galium", "setting": "galium; Postemergence, 125 g ai/ha", "result": 40}, {"measurement": "Corn plant response rating", "setting": "corn [13]; 500 g ai/ha", "result": 40}, {"measurement": "Corn plant response rating", "setting": "corn [13]; Test C, 125 g ai/ha", "result": 10}, {"measurement": "Plant response rating, Ragweed", "setting": "ragweed [14]; 500 g ai/ha, postemergence", "result": 0}, {"measurement": "Plant response rating, Ragweed", "setting": "ragweed [14]; Postemergence, 125 g ai/ha", "result": 0}, {"measurement": "Plant response rating, Foxtail, Giant", "setting": "foxtail, giant [15]; 500 g ai/ha, postemergence", "result": 90}, {"measurement": "Plant response rating, Foxtail, Giant", "setting": "foxtail, giant [15]; Postemergence, 125 g ai/ha", "result": 10}, {"measurement": "Pigweed, Palmer plant response rating", "setting": "pigweed, palmer [16]; 500 g ai/ha", "result": 90}, {"measurement": "Pigweed, Palmer plant response rating", "setting": "pigweed, palmer [16]; Test C, 125 g ai/ha", "result": 60}, {"measurement": "Foxtail, Giant plant response rating", "setting": "foxtail, giant [17]; 500 g ai/ha", "result": 100}, {"measurement": "Foxtail, Giant plant response rating", "setting": "foxtail, giant [17]; Test C, 125 g ai/ha", "result": 80}, {"measurement": "Soybean plant response rating", "setting": "soybean [18]; 500 g ai/ha", "result": 50}, {"measurement": "Soybean plant response rating", "setting": "soybean [18]; Test C, 125 g ai/ha", "result": 0}, {"measurement": "Plant response rating, Blackgrass", "setting": "blackgrass [19]; 500 g ai/ha, postemergence", "result": 70}, {"measurement": "Plant response rating, Blackgrass", "setting": "blackgrass [19]; Postemergence, 125 g ai/ha", "result": 50}, {"measurement": "Kochia plant response rating", "setting": "kochia [20]; 500 g ai/ha", "result": 0}, {"measurement": "Kochia plant response rating", "setting": "kochia [20]; Test C, 125 g ai/ha", "result": 0}, {"measurement": "Plant response rating, Kochia", "setting": "kochia [21]; 500 g ai/ha, postemergence", "result": 80}, {"measurement": "Plant response rating, Kochia", "setting": "kochia [21]; Postemergence, 125 g ai/ha", "result": 30}, {"measurement": "Plant response rating, Wheat", "setting": "wheat [22]; 500 g ai/ha, postemergence", "result": 20}, {"measurement": "Plant response rating, Wheat", "setting": "wheat [22]; Postemergence, 125 g ai/ha", "result": 10}, {"measurement": "Plant response rating, Barnyardgrass (Flood)", "setting": "barnyardgrass [23]", "result": 0}]}]}
